Results reported in the COVID Moonshot data (paper PMC11187573), “Identification of SARS-CoV-2 Mpro inhibitors through deep reinforcement learning for de novo drug design and computational chemistry approaches” (RSC Medicinal Chemistry, 2024).

Experiments:
[1] = biological target: SARS-CoV-2 Main Protease (SARS-CoV-2) (UniProt P0DTD1)
[2] = biological target: SARS-CoV-2 Main Protease (SARS-CoV-2) (UniProt P0DTD1); remark: listed apart in the source

| Compound | inhibition ([1]; 20.0 µM) | inhibition ([1]; 50.0 µM) | inhibition ([2]; 50.0 µM) | relative solubility at 20 uM | relative solubility at 100 uM | inhibition ([2]; 20.0 µM) | IC50 [1] | IC50 [2] |
| --- | --- | --- | --- | --- | --- | --- | --- | --- |
| O=S(=O)(Cc1ccccc1)Nc1cnccc1N1CCCC1 | 1.48% | 1.38% | 0% | 0.99 | 0.98 | – | – | – |
| C=CC(=O)N1CCN(Cc2c[nH]c3ccc(C#N)cc23)CC1 | -36.2% | -27.1% | 0% | 0.97 | 0.92 | 0% | – | – |
| C=CC(=O)N(c1ccc(C(C)(C)C)cc1)C(C(=O)NC(C)(C)C)c1cnccc1C (stereo not drawn) | -14% | -12.5% | 0% | 0.99 | 1 | 0% | – | – |
| CCOc1ccccc1OC1CCN(C(=O)c2cc(=O)[nH]c3cc(F)ccc23)C1 (stereo not drawn) | 13.4% | 21.4% | 0% | 1 | 0.99 | – | – | – |
| N#Cc1cccc(NC(=O)Nc2cncc(N)c2)c1 | – | 57.2% | 48.4% | 1 | 1 | 9.09% | – | – |
| C=CC(=O)N(c1ccc(C(C)(C)C)cc1)C(C(=O)NC1CC(C(=O)OC)C1)c1cccnc1 (stereo not drawn) | 5.7% | 4.24% | 0% | 0.99 | 0.98 | 0% | – | – |
| C=CC(=O)N(c1ccc(C(C)(C)C)cc1)C(C(=O)Nc1cccc(F)c1C)c1cccnc1 (stereo not drawn) | – | -14.8% | 0% | 1 | 0.98 | 0% | – | – |
| O=C(CCl)N1CCN(C2(c3cccc(Cl)c3)CC2)CC1 | 55.7% | 80.8% | 41.2% | 1.01 | 0.99 | – | 52.3 µM | – |
| N#Cc1ccc(S(=O)(=O)N2CCN(C(=O)c3cc(=O)[nH]c4ccc(F)cc34)CC2)cc1 | 2.67% | 10.4% | 33.7% | 0.98 | 0.98 | – | – | – |
| O=C(NCc1cnn2ccccc12)c1cccnc1OCCO | -18.2% | -28.9% | 0% | 1 | 1.01 | 0% | – | – |
| Cc1cc(C)cc(NC(=O)Cn2cncc2C)c1 | -2.21% | 2.72% | 0% | 1 | 1 | – | – | – |
| Cc1ncc2c(n1)CCC(NC(=O)NCc1cccc(N3C(=O)NC4(CCCC4)C3=O)c1)C2 (stereo not drawn) | -7.81% | -6.65% | 0% | 0.99 | 0.97 | – | – | – |
| O=C(NCCN1CCN(c2ccccc2)CC1)NCc1ccccn1 | – | 12.5% | 0% | 0.99 | 0.99 | 0% | – | – |
| C=CC(=O)N(c1ccc2ncsc2c1)C(C(=O)NC(C)(C)C)c1cccnc1 (stereo not drawn) | 9.29% | 0.772% | – | 1 | 1 | 0% | – | – |
| Cn1nnnc1NC(=O)Cc1csc(C(C)(C)C)n1 | 1.85% | 5.13% | 0% | 0.99 | 1 | – | – | – |
| COC(=O)C(c1ccccc1Cl)N1CCc2sccc2C1 (stereo not drawn) | -3.49% | 4.1% | 0% | 0.97 | 0.79 | – | – | – |
| O=C(CCl)N1CCN(C(c2ccccc2)C2CCCCC2)CC1 (stereo not drawn) | 95.8% | 98.1% | 95.6% | 0.98 | 0.78 | – | 4.13 µM | 0.644 µM |
| O=C(c1cc(=O)[nH]c2ccc(F)cc12)N1CCN(S(=O)(=O)c2ccc(Cl)cc2)CC1 | -1.84% | 11.4% | 50% | 0.98 | 0.81 | – | – | – |
| C#CCN1CCN(C(=O)CCl)CC1 | – | 27.2% | 7.12% | 1 | 1 | 6.86% | – | – |
| NS(=O)(=O)c1ccc(N2CCC(c3nc4ccccc4s3)CC2)cc1 | -11.9% | -12% | – | 0.76 | 0.52 | 0% | – | – |
| O=C(Cc1cccnc1)NCc1ccccc1 | 1.31% | 7.29% | 13% | 1 | 1 | – | – | – |
| C=CC(=O)N1CCN(Cc2cc(Cl)cc3ccccc23)CC1 | – | 37.9% | 0% | 0.86 | 0.75 | 0% | – | – |
| O=C(NCCNc1ccccc1)c1cc(=O)[nH]c2ccccc12 | 32% | 61.6% | 35.4% | 1 | 0.98 | – | – | – |
| COC(=O)C(Cc1ccccc1)C(C)NC(=O)C(C)n1ccnc1 (stereo not drawn) | – | 11.9% | 0% | 1 | 1 | 0% | – | – |
| C=CC(=O)N(c1ccc(C(C)OC)cc1)C(C(=O)Nc1c(C)cccc1CC)c1cccnc1 (stereo not drawn) | 5.9% | 3.94% | – | 0.96 | 0.87 | 0% | – | – |
| C=CC(=O)N(c1ccc(S(F)(F)(F)(F)F)cc1)C(C(=O)Nc1c(C)cccc1CC)c1cccnc1 (stereo not drawn) | 3.13% | 7.07% | – | 0.85 | 0.73 | 4.69% | – | – |
| CC1(C)CCCN1S(=O)(=O)c1ccc2c(c1)C(=O)C(=O)N2 | -5.91% | -10.7% | 0% | 0.94 | 0.89 | – | – | – |
| C=C1CC1C(=O)NC(C)c1ccc(S(=O)(=O)NC)cc1 (stereo not drawn) | -2.67% | -0.972% | 0% | 1 | 1 | 0% | – | – |
| Cc1cc(Cl)cc(NC(=O)Nc2cccnc2)c1 | – | 12.7% | 35.4% | 1 | 1 | 0% | – | – |
| Cc1ccncc1NC(=O)CCc1nc2cc(Cl)ccc2o1 | 10.4% | 13.1% | 0% | 0.99 | 1 | – | – | – |
